In article PMC6826779, “Bis-allylic Deuterated DHA Alleviates Oxidative Stress in Retinal Epithelial Cells” (Antioxidants, 2019):

Experiments:
[1] = system: ARPE-19 cells; assay: Lipid peroxidation status with C11-Bodipy581/591 probe (FACS) under oxidative conditions; assay type: cell-based; conditions: ARPE-19, 50 µM for 24 h
Procedure: ARPE-19 cells were plated into 2 cm^2 wells (2 × 10^5 cells/well) and cultured for 24 h to reach confluence before PUFA or lipophenol treatment. The cell cultures were treated with 1% FBSM containing tested compounds (deuterated DHAs or deuterated lipophenols) at 50 μM for 24 h and then rinsed with media before the incubation of 5 µM C11-Bodipy^581/591 for 30 min. Then, the cells were rinsed and treated with the different stressors, corresponding to different protocols. For chemical stress the cells were incubated with 400 µM of H2O2 during 24 h followed by FACS analysis. For photobleaching stress, the cells were exposed to a white LED lamp with an intensity of 5000 lux at room temperature during 1 h followed by the FACS analysis.
FACS was performed with the BD Accuri C6 Flow Cytometer and BD Accuri C6 Software for data acquisition (BD Biosciences). This flow cytometer is equipped with an excitation laser at 488 nm, and a fluorescence detector FL1 533/30 nm. Data were collected to 10,000 events for each sample using a flow rate of 35 µL/min. Parameters obtained for data analysis included: cell size from the forward scatter (FSC), granularity from the side scatter (SSC) and the green fluorescence of the stained cells with C11-Bodipy^581/591.
First the SSC-A versus FSC-A dot-plot was used to gate the cellular population and remove the cellular debris. Then the SSC-A versus SSC-H dot-plot was used to remove cell doublets in the previous gate to give a final gate. The cellular population in the last gate designed was plotted on count versus log green fluorescence to give the fluorescence mean intensity of FL1. The mean FL1 values were normalized to the cells only stained with C11-Bodipy^581/591.

[2] = biological target: T1, 15-sLOX (Glycine max, UniProt P08170); assay: Kinetics parameters of 15s-LOX (UV 270 nm, Michaelis-Menten); assay type: biochemical, Glycine max (soybean); conditions: monitored at 270 nm
T1 sequence (P08170 1-839): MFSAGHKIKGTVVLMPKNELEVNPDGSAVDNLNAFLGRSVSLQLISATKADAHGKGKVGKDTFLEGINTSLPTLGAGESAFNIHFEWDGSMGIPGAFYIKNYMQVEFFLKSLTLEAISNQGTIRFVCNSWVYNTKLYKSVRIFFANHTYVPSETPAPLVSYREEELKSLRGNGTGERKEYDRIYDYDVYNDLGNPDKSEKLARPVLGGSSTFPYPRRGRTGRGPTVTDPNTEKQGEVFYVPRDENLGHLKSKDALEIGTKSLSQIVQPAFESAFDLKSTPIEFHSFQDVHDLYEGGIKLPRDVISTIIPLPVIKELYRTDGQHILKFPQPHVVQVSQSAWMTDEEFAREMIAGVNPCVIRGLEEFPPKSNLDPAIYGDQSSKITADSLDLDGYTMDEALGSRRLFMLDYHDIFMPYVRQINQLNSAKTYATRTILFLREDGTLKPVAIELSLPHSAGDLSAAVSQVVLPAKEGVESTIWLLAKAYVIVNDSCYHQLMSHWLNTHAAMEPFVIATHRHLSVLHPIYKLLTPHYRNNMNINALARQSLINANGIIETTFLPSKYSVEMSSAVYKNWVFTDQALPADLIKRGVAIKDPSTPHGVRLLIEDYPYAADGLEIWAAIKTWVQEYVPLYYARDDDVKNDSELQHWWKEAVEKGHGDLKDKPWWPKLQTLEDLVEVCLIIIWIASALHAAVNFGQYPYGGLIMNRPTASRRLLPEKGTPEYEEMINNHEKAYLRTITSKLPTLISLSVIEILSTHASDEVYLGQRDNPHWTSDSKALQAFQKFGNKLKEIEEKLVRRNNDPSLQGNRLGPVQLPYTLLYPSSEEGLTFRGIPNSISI
Procedure: The activity of 15-sLOX was monitored on a Beckman Coulter DU730 Life Sciences UV-visible spectrometer at a wavelength of 270 nm monitoring the conjugated triene structure in the dihydroxylation products. For the measurements a reaction mixture of DHA or deuterated DHA (0.02 mM; 0.04 mM; 0.1 mM and 0.2 mM) was prepared in 750 µL sodium borate buffer (50 mM, pH 9) by ultrasonification for 10 s. The reaction was subsequently initiated by the addition of 10 µL 15-sLOX (4 mg/mL) to make a total volume of 760 µL in a Hellma CEL2056 quartz cuvette with 1 cm path length (20 °C). The initial reaction rates (V(0)), derived from the recorded UV-absorbance using the law of Lambert-Beer (molar extinction coefficient = 40,000), were plotted against the respective DHA concentrations and fitted to Michaelis-Menten kinetics in GraphPad Prism 7.0. All V(0) values were determined in triplicate and the average of three independent experiments was plotted against the substrate concentrations to yield Michaelis-Menten kinetics.

[3] = serum starvation (1% FBSM) 24 h
[4] = serum starvation (1% FBSM) 48 h

Row | SMILES | lipid peroxidation status (C11-BODIPY fluorescence) [1, 3] | 15s-LOX activity for the double hydroxylation product [2] | lipid peroxidation status (C11-BODIPY fluorescence) [1, 4] | lipid peroxidation status (C11-BODIPY fluorescence) ([1]; then H2O2 400 µM 24 h) | lipid peroxidation status (C11-BODIPY fluorescence) ([1]; then photobleaching (white light, 5000 lux, 1 h))
1 | [2H]C([2H])(/C=C\C/C=C\C/C=C\C/C=C\C/C=C\CC)/C=C\CCC(=O)O [D2-DHA, (6,6-D2)-DHA] | decreased lipid peroxidation status with the same efficiency, reaching oxidation levels of untreated cells | no substantial differences | – | – | –
2 | [2H]C([2H])(C=CCC=CCC=CCC=CCC)C=CC([2H])([2H])C=CCCC(=O)O [D4-DHA, (6,6,9,9-D4)-DHA] | decreased lipid peroxidation status with the same efficiency, reaching oxidation levels of untreated cells | no substantial differences | reach radical levels close to untreated cells | more effective than D2-DHA | –
3 | CC/C=C\C/C=C\C/C=C\C/C=C\C/C=C\C/C=C\CCC(=O)O [Natural DHA, docosahexaenoic acid, reference compound] | – | no substantial differences | increase in lipid peroxidation status compared to untreated cells | increase of oxidation | increase in lipid peroxidation under photobleaching-stress
